Reference: US11963972B2, “Antiviral agents and nucleoside analogs for treatment of Zika virus” (priority 2016, dated 2024)

How the values were obtained:
[1] = test system: ZIKV Puerto Rico strain (PRVABC59); assay: ZIKV CPE MTS assay in human neuroblastoma (U251) cells; type: cell-based, Zika virus; conditions: Zika virus; for IC50: U-251, 120 h, read-out: ZIKV CPE MTS Assay IC50 (μM) H251
Experimental: (§1) […] Cell cytopathic effect (CPE) MTS assay (CellTiter 96@k) AQueous One Solution Cell Proliferation Promega kit, Promega) was measured four (Vero) or five (U251 or Huh7) days after compound addition to determine the levels of replication inhibition.

[2] = Cytotoxicity MTT assay in CEM cells; type: cell-based; conditions: human
From the text: (§2) The toxicity of the compounds can be assessed in Vero, human PBM, CEM (human lymphoblastoid), and can be assessed in MT-2, and HepG2 cells, as described previously (see Schinazi R. F., Sommadossi J.-P., Saalmann V., Cannon D. L., Xie M.-Y., Hart G. C., Smith G. A. & Hahn E. F. Antimicrob. Agents Chemother. 1990, 34, 1061-67). Cycloheximide can be included as positive cytotoxic control, and untreated cells exposed to solvent can be included as negative controls. The cytotoxicity (IC50) can be obtained from the concentration-response curve using the median effective method described previously (see Chou T.-C. & Talalay P. Adv. Enzyme Regul. 1984, 22, 27-55; Belen'kii M. S. & Schinazi R. F. Antiviral Res. 1994, 25, 1-11).

[3] = test system: ZIKV Puerto Rico strain (PRVABC59); assay: ZIKV CPE MTS assay in Vero cells; type: cell-based, Zika virus; conditions: Zika virus; for IC50: 96 h, read-out: ZIKV CPE MTS Assay IC50 (μM) Vero; for inhibition at 20 µM / inhibition at 10 µM: read-out: ZIKV CPE MTS Assay percentage of inhibition at the concentration, Vero
Experimental: as §1

[4] = Cytotoxicity MTT assay in HepG2 cells; type: cell-based; conditions: human
From the text: as §2

[5] = test system: ZIKV Puerto Rico strain (PRVABC59); assay: ZIKV CPE MTS assay in Huh7 cells; type: cell-based, Zika virus; conditions: Zika virus; for IC50: Huh-7, 120 h, read-out: ZIKV CPE MTS Assay IC50 (μM) Huh7
Experimental: as §1

[6] = Cytotoxicity MTT assay in Vero cells; type: cell-based; conditions: African green monkey
From the text: as §2

[7] = Cytotoxicity MTT assay in Huh7 cells; type: cell-based; conditions: human
[8] = Cytotoxicity MTT assay in PBM cells; type: cell-based; conditions: human
Experimental: v) Cellular Toxicity Assays: Nucleoside and nucleoside monophosphate prodrugs can be evaluated for their potential toxic effects on P4/R5 cells, MT-2 cells and uninfected PHA-stimulated human PBM cell. Log-phase P4/R5, MT-2, and PHA-stimulated human PBM cells can be seeded at 5×10^3 to 5×10^4 cells/well in 96-well cell culture plates containing 10-fold serial dilutions of the test drug. The cultures can be incubated for 2-4 days, after which 3-(4,5-dimethylthiazol-2-yl)-2,5-diphenyltetrazolium bromide (MTT) dye solution (Promega, Madison, WI) can be added to each well and incubated overnight. The reaction can be stopped with stop solubilization solution (Promega, Madison, WI) and plates can be read at a wavelength of 570 nm. The median 50% cytotoxic concentration (CC50) can be determined from the concentration-response curve using the median effect method.
as §2

Zika virus = assay: Zika-infected Vero cell model, 4G2 antibody staining, FACS; type: cell-based; conditions: 72 h, MOI 0.1, Day 3, FACS, read-out: percent inhibition of Zika-infected Vero cells
Experimental: At 8 AM on Day 1, 10,000 cells/well were plated in a 96 well plate. At 2 PM, MOI 0.1 Zika virus was added. At 3 PM, virus inoculum was removed, and various concentrations of drug-containing medium was added, at multiple concentrations (duplicates of […]).
On Day 3, supernatants were harvested, and frozen for later RT-PCR confirmation. Cells were harvested, stained with 4G2 antibody, and intracellular virus was quantified with FACS. The EC50/EC90 were then calculated.
Concentrations of 10, 1, 0.1, 0.01 μM were assayed in duplicate for 10 total drugs. All cells were harvested, but the only cells stained with antibody were those contacted with the following compounds, in the listed concentrations:
All gates were established using uninfected cells as a control, and were maintained for all test conditions.

DENV-2 [9] = assay: DENV-2 Huh-7 infectious assay; type: cell-based; conditions: Dengue virus, DENV2, Huh-7
DENV-2 [10] = assay: DENV-2 VERO infectious assay; type: cell-based, Dengue virus; conditions: Dengue virus, DENV2, Vero
[11] = Vero cells, MOI=0.01, four days
[12] = U-251, read-out: ZIKV CPE MTS Assay percentage of inhibition at the concentration, H251

SMILES	IC50 [6]	IC50 [7]	IC50 [1]	inhibition at 20 µM [1, 12]	IC50 [2]	IC50 ([3]; Vero)	inhibition at 20 µM ([3]; Vero)	IC50 [5]	IC50 ([8]; PBM cells)	also measured
CC1(O)C(O)[C@@H](CO)O[C@H]1n1ccc(N)nc1=O (stereo partly drawn)	> 100 µM	> 100 µM	–	–	–	–	–	–	–	IC50 ([1]; H251 cells, MOI=0.5, five days): 16.3 µM; IC50 ([2]; CEM lymphoblastoid cells): 84.3 µM; IC50 [3, 11]: 9.2 µM; IC50 [4]: 59.1 µM; IC50 ([5]; Huh7 cells, MOI=0.5, five days): 9.3 µM; IC50 ([8]; PHA-stimulated human PBM cells): 65.4 µM
C[C@@]1(O)C(O)[C@@H](CO)O[C@H]1n1cnc2c(N)ncnc21 (stereo partly drawn)	–	–	–	–	–	–	–	–	–	IC50 ([1]; H251 cells, MOI=0.5, five days): > 20 µM; inhibition at 20 µM ([1]; U-251, H251 cells, at 20 μM, read-out: ZIKV CPE MTS Assay percentage of inhibition at the concentration, H251): 24%; IC50 [3, 11]: 20 µM; IC50 ([5]; Huh7 cells, MOI=0.5, five days): 3.4 µM
C[C@@]1(O)C(n2cnc3c(N)ncnc32)O[C@H](CO)[C@@H]1O (stereo partly drawn)	> 100 µM	–	–	–	–	–	–	–	–	IC50 ([1]; H251 cells, MOI=0.5, five days): > 10 µM; inhibition at 10 µM ([1]; U-251, H251 cells, at 10 μM, read-out: ZIKV CPE MTS Assay percentage of inhibition at the concentration, H251): 37%; IC50 ([2]; CEM lymphoblastoid cells): > 100 µM; IC50 [3, 11]: 13.1 µM; IC50 ([5]; Huh7 cells, MOI=0.5, five days): 1.7 µM; IC50 ([8]; PHA-stimulated human PBM cells): > 100 µM
CCOC(=O)[C@H](C)NP(=O)(OCC1C(n2cnc3c(N)cc(N)nc32)C[C@](C)(O)[C@@H]1O)Oc1ccccc1 (stereo partly drawn)	> 100 µM	> 100 µM	> 20 µM	42%	> 100 µM	> 20 µM	1%	2.9 µM	> 100 µM	–
CCOC(=O)[C@@H](C)NP(=O)(OC[C@H]1O[C@@H](n2ccc(NO)nc2=O)C(C)(O)C1O)Oc1ccccc1 (stereo partly drawn)	> 100 µM	> 100 µM	> 20 µM	27%	> 100 µM	> 20 µM	1%	5 µM	> 100 µM	–
CCOC(=O)[C@H](C)NP(=O)(OC[C@H]1O[C@@H](n2cnc3c(N)nc(N=[N+]=[N-])nc32)C(C)(O)C1O)Oc1ccccc1 (stereo partly drawn)	> 100 µM	> 100 µM	> 20 µM	34%	> 100 µM	> 20 µM	3%	< 20 µM	> 100 µM	IC50 [4]: > 100 µM; inhibition at 20 µM ([5]; Huh-7, read-out: ZIKV CPE MTS Assay percentage of inhibition at the concentration, Huh7): 88%
CCOC(=O)[C@H](C)NP(=O)(OCC1O[C@@H](n2cnc3c(NOC)nc(N)nc32)[C@](C)(O)[C@@H]1O)Oc1ccccc1 (stereo partly drawn)	> 100 µM	94 µM	> 20 µM	43%	28 µM	> 20 µM	19%	4.7 µM	> 100 µM	–
CC(C)OC(=O)[C@H](C)NP(=O)(OC[C@H]1O[C@@H](n2ccc(NO)nc2=O)C(C)(O)C1O)Oc1ccccc1 (stereo partly drawn)	> 100 µM	> 100 µM	> 20 µM	3%	> 100 µM	> 20 µM	1%	0.8 µM	> 100 µM	–
CC(C)OC(=O)[C@H](C)NP(=O)(OCC1O[C@@H](n2cnc3c(N=[N+]=[N-])nc(N)nc32)[C@](C)(O)[C@@H]1O)Oc1ccccc1 (stereo partly drawn)	> 100 µM	> 100 µM	> 20 µM	20%	> 100 µM	> 20 µM	1%	11.5 µM	> 100 µM	–
CC(C)OC(=O)[C@H](C)NP(=O)(OCC1O[C@@H](n2cnc3c(N)nc(N)nc32)[C@](C)(O)[C@@H]1O)Oc1ccccc1 (stereo partly drawn)	> 100 µM	> 100 µM	> 20 µM	25%	> 100 µM	> 20 µM	1%	3.7 µM	> 100 µM	–
CC(C)OC(=O)[C@H](C)NP(=O)(OC[C@H]1O[C@@H](n2cc(F)c3c(N)ncnc32)[C@](C)(O)C1O)Oc1ccccc1 (stereo partly drawn)	> 100 µM	–	> 10 µM	–	92.1 µM	> 20 µM	–	7.6 µM	34.7 µM	inhibition at 10 µM [1, 12]: 1%
CC(C)OC(=O)[C@H](C)N[P@](=O)(OC[C@H]1O[C@@H](n2ccc(=O)[nH]c2=O)[C@](C)(F)[C@@H]1O)Oc1ccccc1	> 100 µM	49.3 µM	> 20 µM	17%	> 100 µM	> 20 µM	1%	5.7 µM	> 100 µM	–
CC(C)OC(=O)[C@H](C)NP(=O)(OC[C@H]1O[C@@H](n2ccc(=O)[nH]c2=O)[C@@](F)(Cl)C1O)Oc1ccccc1 (stereo partly drawn)	> 100 µM	–	–	–	> 100 µM	< 10 µM	–	–	> 100 µM	inhibition at 10 µM ([3]; Vero): 76%
CC(C)OC(=O)[C@H](C)NP(=O)(OC[C@H]1O[C@@H](n2ccc(N)nc2=O)C(F)(Cl)C1O)Oc1ccccc1 (stereo partly drawn)	> 100 µM	–	–	–	> 100 µM	< 10 µM	–	–	> 100 µM	inhibition at 10 µM ([3]; Vero): 80%
CC1(F)C(O)[C@@H](CO)O[C@H]1n1ccc(N)nc1=O (stereo partly drawn)	> 100 µM	–	–	–	–	–	–	–	–	IC50 ([2]; CEM lymphoblastoid cells): > 100 µM; IC50 [3, 11]: ≤ 10 µM; inhibition at 10 µM ([3]; Vero cells, at 10 μM): 65%; IC50 [4]: > 100 µM; IC50 ([8]; PHA-stimulated human PBM cells): > 100 µM
C[C@@H]1C[C@@H]([C@H](O)CC2CC(=O)NC(=O)C2)C(=O)[C@@H](C)C1	0.2 µM	–	–	–	0.2 µM	–	–	–	0.9 µM	IC50 [4]: 0.3 µM
CC1(O)C(O)[C@@H](CO)O[C@H]1n1cc(F)c2c(N)ncnc21 (stereo in doubt)	–	–	–	–	–	–	–	–	–	inhibition at 0.01 µM (Zika virus): 21%; inhibition at 0.1 µM (Zika virus): 59%; inhibition at 1 µM (Zika virus): 73%; inhibition at 10 µM (Zika virus): 83%
CC1(O)C(O)[C@@H](CO)O[C@H]1n1cc(F)c2c(N)ncnc21 (stereo partly drawn) [drawing 83]	–	–	–	–	–	–	–	–	–	EC50 (DENV-2 [9]): 2.6 µM; EC50 (DENV-2 [10]): 8.6 µM
O=c1nc(NO)ccn1[C@@H]1O[C@H](CO)C(O)C1O (stereo partly drawn) [drawing 85]	–	–	–	–	–	–	–	–	–	inhibition at 0.01 µM (Zika virus): 0%; inhibition at 0.1 µM (Zika virus): 5%; inhibition at 1 µM (Zika virus): 35%; inhibition at 10 µM (Zika virus): 57%
CC1(O)C(O)[C@@H](CO)O[C@H]1n1cc(F)c2c(N)ncnc21 (stereo partly drawn) [drawing 91]	> 100 µM	17.5 µM	–	–	–	–	–	–	–	IC50 ([1]; H251 cells, MOI=0.5, five days): 6.1 µM; IC50 ([2]; CEM lymphoblastoid cells): 33.6 µM; IC50 [3, 11]: 5.1 µM; IC50 ([5]; Huh7 cells, MOI=0.5, five days): 1.7 µM; IC50 ([8]; PHA-stimulated human PBM cells): 83.7 µM
O=C(O)c1cc(/N=N/c2ccc(S(=O)(=O)Nc3ccccn3)cc2)ccc1O [drawing 106]	> 100 µM	–	–	–	–	–	–	–	–	IC50 ([2]; CEM lymphoblastoid cells): > 100 µM; IC50 [4]: > 100 µM; IC50 ([8]; PHA-stimulated human PBM cells): > 100 µM
O=c1nc(NO)ccn1[C@@H]1O[C@H](CO)C(O)C1O (stereo partly drawn) [drawing 107]	7.7 µM	–	–	–	–	–	–	–	–	IC50 ([1]; H251 cells, MOI=0.5, five days): 4.3 µM; IC50 ([2]; CEM lymphoblastoid cells): 2.5 µM; IC50 [3, 11]: 3.2 µM; IC50 ([5]; Huh7 cells, MOI=0.5, five days): 5.1 µM; IC50 ([8]; PHA-stimulated human PBM cells): 30.6 µM
